# Measured values taken from patent publication US20250206757A1 (GASHERBRUM BIO, INC., priority 2022, published 2025).
# Molecular target: GLP-1 Receptor (Homo sapiens, UniProt P43220)
# Assay: GLP-1R agonist cAMP stimulation assay (HEK293/GLP1R/CRE-LUC cells, HTRF cAMP dynamic 2 kit)
# Type: cell-based
# Settings: HEK293/CRE-Luc cell line stably expressing the GLP-1 Receptor; 30 min incubation at 37° C.
# Outline: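 HEK293 cells stably expressing GLP-1R with CRE-Luc, 1000 cells/well in DPBS with 0.5 mM IBMX and 0.10% BSA, exposed to half-log compound dilutions for 30 min at 37 °C. cAMP measured by HTRF (665/615 nm) after 1 h at room temperature.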
# GLP-1 Receptor, sequence (P43220 24-463): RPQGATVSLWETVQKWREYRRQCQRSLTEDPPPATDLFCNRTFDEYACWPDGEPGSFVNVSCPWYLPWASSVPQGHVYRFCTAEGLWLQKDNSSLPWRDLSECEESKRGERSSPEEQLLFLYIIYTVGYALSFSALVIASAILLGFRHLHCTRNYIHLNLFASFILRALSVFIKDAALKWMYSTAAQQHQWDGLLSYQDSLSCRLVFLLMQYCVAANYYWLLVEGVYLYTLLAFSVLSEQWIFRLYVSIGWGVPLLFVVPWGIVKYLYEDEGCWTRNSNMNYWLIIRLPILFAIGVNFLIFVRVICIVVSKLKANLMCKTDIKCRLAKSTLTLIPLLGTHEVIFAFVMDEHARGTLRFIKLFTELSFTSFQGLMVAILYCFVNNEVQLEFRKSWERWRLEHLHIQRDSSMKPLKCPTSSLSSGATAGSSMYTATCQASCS
row,SMILES,EC50
1,"Fc1cc(Cl)cc(F)c1COc1nc2c(cc1C(F)(F)F)CCN(Cc1nc3cc(-c4nnn[nH]4)cnc3n1C[C@@H]1CCO1)C2 [Compound 89, 2-[(4-chloro-2,6-difluorophenyl)methoxy]-7-[(3-{[(2S)-oxetan-2-yl]methyl}-6-(11H-1,2,3,4-tetrazol-5-yl)-3H-imidazo[4,5-b]pyridin-2-yl)methyl]-3-(trifluoromethyl)-5,6,7,8-tetrahydro-1,7-naphthyridine]",< 1 nM
2,"Fc1cc(Cl)cc(F)c1COc1nc2c(cc1C(F)(F)F)CCN(Cc1nc3cc(-c4nnn[nH]4)ncc3n1C[C@@H]1CCO1)C2 [Compound 90, 2-[(4-chloro-2,6-difluorophenyl)methoxy]-7-[(3-{[(2S)-oxetan-2-yl]methyl}-6-(11H-1,2,3,4-tetrazol-5-yl)-3H-imidazo[4,5-c]pyridin-2-yl)methyl]-3-(trifluoromethyl)-5,6,7,8-tetrahydro-1,7-naphthyridine]",< 1 nM
3,"Cc1cc2c(nc1OCc1c(F)cc(Cl)cc1F)CN(Cc1nc3cc(-c4nnn[nH]4)ncc3n1C[C@@H]1CCO1)CC2 [Compound 91, 2-[(4-chloro-2,6-difluorophenyl)methoxy]-3-methyl-7-[(3-{[(2S)-oxetan-2-yl]methyl}-6-(1H-1,2,3,4-tetrazol-5-yl)-3H-imidazo[4,5-c]pyridin-2-yl)methyl]-5,6,7,8-tetrahydro-1,7-naphthyridine]",< 1 nM
4,"NC(=O)c1ccc2c(c1)nc(CN1CCc3cc(C(F)(F)F)c(OCc4ccc(Cl)cc4F)nc3C1)n2C[C@@H]1CCO1 [Compound 92, 2-({2-[(4-chloro-2-fluorophenyl)methoxy]-3-(trifluoromethyl)-5,6,7,8-tetrahydro-1,7-naphthyridin-7-yl}methyl)-1-{[(2S)-oxetan-2-yl]methyl}-1H-1,3-benzodiazole-5-carboxamide]",1 to 300 nM
5,"CS(=O)(=O)NC(=O)c1ccc2c(c1)nc(CN1CCc3cc(C(F)(F)F)c(OCc4ccc(Cl)cc4F)nc3C1)n2C[C@@H]1CCO1 [Compound 93, 2-({2-[(4-chloro-2-fluorophenyl)methoxy]-3-(trifluoromethyl)-5,6,7,8-tetrahydro-1,7-naphthyridin-7-yl}methyl)-N-methanesulfonyl-1-{[(2S)-oxetan-2-yl]methyl}-1H-1,3-benzodiazole-5-carboxamide]",< 1 nM
6,"CNC(=O)c1nnc(-c2cc3nc(CN4CCc5cc(C(F)(F)F)c(OCc6ccc(Cl)cc6F)nc5C4)n(C[C@@H]4CCO4)c3cn2)[nH]1 [Compound 94, 5-[2-({2-[(4-chloro-2-fluorophenyl)methoxy]-3-(trifluoromethyl)-5,6,7,8-tetrahydro-1,7-naphthyridin-7-yl}methyl)-3-{[(2S)-oxetan-2-yl]methyl}-3H-imidazo[4,5-c]pyridin-6-yl]-N-methyl-4H-1,2,4-triazole-3-carboxamide]",< 1 nM
7,"CN(C)C(=O)c1nnc(-c2cc3nc(CN4CCc5cc(C(F)(F)F)c(OCc6ccc(Cl)cc6F)nc5C4)n(C[C@@H]4CCO4)c3cn2)[nH]1 [Compound 95, 5-[2-({2-[(4-chloro-2-fluorophenyl)methoxy]-3-(trifluoromethyl)-5,6,7,8-tetrahydro-1,7-naphthyridin-7-yl}methyl)-3-{[(2S)-oxetan-2-yl]methyl}-3H-imidazo[4,5-c]pyridin-6-yl]-N,N-dimethyl-4H-1,2,4-triazole-3-carboxamide]",1 to 300 nM
8,"O=c1[nH]nc(-c2cc3nc(CN4CCc5cc(C(F)(F)F)c(OCc6ccc(Cl)cc6F)nc5C4)n(C[C@@H]4CCO4)c3cn2)o1 [Compound 96, 5-[2-({2-[(4-chloro-2-fluorophenyl)methoxy]-3-(trifluoromethyl)-5,6,7,8-tetrahydro-1,7-naphthyridin-7-yl}methyl)-3-{[(2S)-oxetan-2-yl]methyl}-3H-imidazo[4,5-c]pyridin-6-yl]-2,3-dihydro-1,3,4-oxadiazol-2-one]",< 1 nM
9,"O=c1[nH]nc(-c2cc3nc(CN4CCc5cc(C(F)(F)F)c(OCc6ccc(Cl)cc6F)nc5C4)n(C[C@@H]4CCO4)c3cn2)[nH]1 [Compound 97, 3-[2-({2-[(4-chloro-2-fluorophenyl)methoxy]-3-(trifluoromethyl)-5,6,7,8-tetrahydro-1,7-naphthyridin-7-yl}methyl)-3-{[(2S)-oxetan-2-yl]methyl}-3H-imidazo[4,5-c]pyridin-6-yl]-4,5-dihydro-1H-1,2,4-triazol-5-one]",< 1 nM
10,"Fc1cc(Cl)ccc1COc1nc2cc(Cc3nc4cc(-c5nnc(C(F)(F)F)[nH]5)ncc4n3C[C@@H]3CCO3)ccc2cc1C(F)(F)F [Compound 98, 2-[(4-chloro-2-fluorophenyl)methoxy]-7-[(3-{[(2S)-oxetan-2-yl]methyl}-6-[5-(trifluoromethyl)-4H-1,2,4-triazol-3-yl]-3H-imidazo[4,5-c]pyridin-2-yl)methyl]-3-(trifluoromethyl)quinoline]",< 1 nM
11,"O=C(O)CCn1cc(-c2cnc3c(c2)nc(CN2CCc4cc(C(F)(F)F)c(OCc5ccc(Cl)cc5F)nc4C2)n3C[C@@H]2CCO2)nn1 [Compound 99, 3-{4-[2-({2-[(4-chloro-2-fluorophenyl)methoxy]-3-(trifluoromethyl)-5,6,7,8-tetrahydro-1,7-naphthyridin-7-yl}methyl)-3-{[(2S)-oxetan-2-yl]methyl}-3H-imidazo[4,5-b]pyridin-6-yl]-1H-1,2,3-triazol-1-yl}propanoic acid]",1 to 300 nM
12,"O=c1cc(-c2cc3nc(CN4CCc5cc(C(F)(F)F)c(OCc6ccc(Cl)cc6F)nc5C4)n(C[C@@H]4CCO4)c3cn2)cc[nH]1 [Compound 100, 4-[2-({2-[(4-chloro-2-fluorophenyl)methoxy]-3-(trifluoromethyl)-5,6,7,8-tetrahydro-1,7-naphthyridin-7-yl}methyl)-3-{1[(2S)-oxetan-2-yl]methyl}-3H-imidazo[4,5-c]pyridin-6-yl]-1,2-dihydropyridin-2-one]",> 300 nM
13,"O=c1ccc(-c2cc3nc(CN4CCc5cc(C(F)(F)F)c(OCc6ccc(Cl)cc6F)nc5C4)n(C[C@@H]4CCO4)c3cn2)c[nH]1 [Compound 102, 5-[2-({2-[(4-chloro-2-fluorophenyl)methoxy]-3-(trifluoromethyl)-5,6,7,8-tetrahydro-1,7-naphthyridin-7-yl}methyl)-3-{[(2S)-oxetan-2-yl]methyl}-3H-imidazo[4,5-c]pyridin-6-yl]-1,2-dihydropyridin-2-one]",> 300 nM
14,"O=C(Nc1cc2nc(CN3CCc4cc(C(F)(F)F)c(OCc5ccc(Cl)cc5F)nc4C3)n(C[C@@H]3CCO3)c2cn1)c1cccnc1 [Compound 103, N-[2-({2-[(4-chloro-2-fluorophenyl)methoxy]-3-(trifluoromethyl)-5,6,7,8-tetrahydro-1,7-naphthyridin-7-yl}methyl)-3-{[(2S)-oxetan-2-yl]methyl}-3H-imidazo[4,5-c]pyridin-6-yl]pyridine-3-carboxamide]",< 1 nM
15,"O=c1[nH]c(-c2cc3nc(CN4CCc5cc(C(F)(F)F)c(NCc6ccc(Cl)cc6F)nc5C4)n(C[C@@H]4CCO4)c3cn2)no1 [Compound 104, 3-{2-[(2-{[(4-chloro-2-fluorophenyl)methyl]amino}-3-(trifluoromethyl)-5,6,7,8-tetrahydro-1,7-naphthyridin-7-yl)methyl]-3-{[(2S)-oxetan-2-yl]methyl}-3H-imidazo[4,5-c]pyridin-6-yl}-4,5-dihydro-1,2,4-oxadiazol-5-one]",< 1 nM
16,"O=c1[nH]c(-c2cc3nc(CN4CCc5cc(C(F)(F)F)c(NCc6c(F)cc(Cl)cc6F)nc5C4)n(C[C@@H]4CCO4)c3cn2)no1 [Compound 105, 3-{2-[(2-{[(4-chloro-2,6-difluorophenyl)methyl]amino}-3-(trifluoromethyl)-5,6,7,8-tetrahydro-1,7-naphthyridin-7-yl)methyl]-3-{[(2S)-oxetan-2-yl]methyl}-3H-imidazo[4,5-c]pyridin-6-yl}-4,5-dihydro-1,2,4-oxadiazol-5-one]",< 1 nM
17,"O=c1[nH]c(-c2ccc3c(nc(CN4CCc5cc(C(F)(F)F)c(NCc6ccc(Cl)cc6F)nc5C4)n3C[C@@H]3CCO3)c2F)no1 [Compound 106, 3-{2-[(2-{[(4-chloro-2-fluorophenyl)methyl]amino}-3-(trifluoromethyl)-5,6,7,8-tetrahydro-1,7-naphthyridin-7-yl)methyl]-4-fluoro-1-{[(2S)-oxetan-2-yl]methyl}-1H-1,3-benzodiazol-5-yl}-4,5-dihydro-1,2,4-oxadiazol-5-one]",< 1 nM
18,"NC(=O)c1nnc(-c2cc3nc(CN4CCc5cc(C(F)(F)F)c(NCc6ccc(Cl)cc6F)nc5C4)n(C[C@@H]4CCO4)c3cn2)[nH]1 [Compound 107, 5-{2-[(2-{[(4-chloro-2-fluorophenyl)methyl]amino}-3-(trifluoromethyl)-5,6,7,8-tetrahydro-1,7-naphthyridin-7-yl)methyl]-3-{[(2S)-oxetan-2-yl]methyl}-3H-imidazo[4,5-c]pyridin-6-yl}-4H-1,2,4-triazole-3-carboxamide]",< 1 nM
19,"N#Cc1nnc(-c2cc3nc(CN4CCc5cc(C(F)(F)F)c(NCc6ccc(Cl)cc6F)nc5C4)n(C[C@@H]4CCO4)c3cn2)[nH]1 [Compound 108, 5-{2-[(2-{[(4-chloro-2-fluorophenyl)methyl]amino}-3-(trifluoromethyl)-5,6,7,8-tetrahydro-1,7-naphthyridin-7-yl)methyl]-3-{[(2S)-oxetan-2-yl]methyl}-3H-imidazo[4,5-c]pyridin-6-yl}-4H-1,2,4-triazole-3-carbonitrile]",< 1 nM
20,"Fc1cc(Cl)ccc1CNc1nc2c(cc1C(F)(F)F)CCN(Cc1nc3cc(-c4nnc(C(F)(F)F)[nH]4)ncc3n1C[C@@H]1CCO1)C2 [Compound 109, N-[(4-chloro-2-fluorophenyl)methyl]-7-[(3-{1[(2S)-oxetan-2-yl]methyl}-6-[5-(trifluoromethyl)-4H-1,2,4-triazol-3-yl]-3H-imidazo[4,5-c]pyridin-2-yl)methyl]-3-(trifluoromethyl)-5,6,7,8-tetrahydro-1,7-naphthyridin-2-amine]",< 1 nM
